Among the data in patent publication US9938261B2, “Heterocyclic compounds and methods of use thereof” (AMBIT BIOSCIENCES CORPORATION, priority 2011, dated 2018) are IC50 and Kd values, retold here.

For orientation: IC50 means the concentration that inhibits the measured activity by half. The Kd is the constant that tells how readily two partners part at equilibrium. Lower therefore signals tighter binding.

For one test, the system named is M-NFS-60 cells. The test is described as follows: M-NFS-60 cell proliferation assay (Alamar Blue). The class given is cell-based, mouse. The conditions noted are these: Mus musculus; M-NFS-60 cell proliferation; read-out: CSF1R M-NFS-60 CTB:IC50. The procedure, abridged:
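Alamar Blue reduction (3 h; 560/590 nm) measured viability after 72 h, 37 °C treatment with nine half-log compound concentrations at 0.5% DMSO. Cells: M-CSF-dependent (20 ng/mL) murine M-NFS-60 in RPMI plus 10% FBS. IC50s, averaged from duplicates, reflect half-maximal inhibition of proliferation relative to control.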

In test [1] the target is T1, CSF1R (Homo sapiens, UniProt P07333). The test is described as follows: HEK293 CSF1R phosphorylation MSD assay. The class given is cell-based. Further details: expressed in transfected cells; host or cells: HEK293. The conditions noted are these: HEK293 cells, M-CSF stimulated CSF1R phosphorylation, MSD; read-out: HEK293 pCSF1R M-CSF MSD:IC50. In a few lines:
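Ligand-induced CSF1R autophosphorylation was measured by MSD sandwich assay: CSF1R-FKBP from lysates captured via FK506, anti-phosphotyrosine readout. Cells were exposed to compound for 2 h (9-point, half-log, 0.5% DMSO) before 5 min 50 ng/mL M-CSF. Reported IC50 is the mean of duplicate-plate IC50s relative to DMSO control.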

The target in test [2] is T1, CSF1R. The test is described as follows: Competition binding assay, CSF1R Kd. The following applies: competition binding. Further details: made in house. In a few lines: (§1)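 Compound displacement of kinase from bead-immobilized ligand is measured by qPCR after 1 h equilibration at room temperature. Kinases are T7 phage fusions or DNA-tagged HEK-293 products.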
For another test, the target named is T2, KIT (Homo sapiens, UniProt P10721).
T2 construct: made in house
The test is described as follows: Competition binding assay, KIT Kd. The following applies: competition binding. The procedure, abridged: as §1

T1 sequence (P07333 20-972): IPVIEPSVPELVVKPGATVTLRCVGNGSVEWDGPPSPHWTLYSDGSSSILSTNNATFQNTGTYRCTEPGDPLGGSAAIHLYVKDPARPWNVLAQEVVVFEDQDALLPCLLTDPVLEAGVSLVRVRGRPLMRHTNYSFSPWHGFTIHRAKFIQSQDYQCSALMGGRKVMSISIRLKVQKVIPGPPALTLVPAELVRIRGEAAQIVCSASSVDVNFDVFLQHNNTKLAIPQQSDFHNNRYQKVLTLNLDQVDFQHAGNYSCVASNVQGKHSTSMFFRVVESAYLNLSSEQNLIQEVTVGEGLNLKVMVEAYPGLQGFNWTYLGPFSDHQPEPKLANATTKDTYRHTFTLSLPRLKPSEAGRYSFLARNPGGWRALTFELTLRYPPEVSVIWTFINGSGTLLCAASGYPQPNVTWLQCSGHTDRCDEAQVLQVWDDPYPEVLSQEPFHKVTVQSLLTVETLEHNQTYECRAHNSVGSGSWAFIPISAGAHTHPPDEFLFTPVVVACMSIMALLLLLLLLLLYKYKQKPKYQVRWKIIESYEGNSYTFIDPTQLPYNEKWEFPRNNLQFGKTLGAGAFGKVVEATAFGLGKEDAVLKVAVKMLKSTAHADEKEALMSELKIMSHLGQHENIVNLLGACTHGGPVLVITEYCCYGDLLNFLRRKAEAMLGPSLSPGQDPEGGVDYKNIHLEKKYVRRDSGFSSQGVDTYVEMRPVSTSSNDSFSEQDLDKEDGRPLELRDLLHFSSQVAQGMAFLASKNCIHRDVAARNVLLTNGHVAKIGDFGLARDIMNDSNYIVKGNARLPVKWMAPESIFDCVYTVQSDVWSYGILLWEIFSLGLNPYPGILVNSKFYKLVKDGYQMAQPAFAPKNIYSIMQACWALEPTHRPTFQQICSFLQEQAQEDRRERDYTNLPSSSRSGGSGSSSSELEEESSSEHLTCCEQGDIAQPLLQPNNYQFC
T2 sequence (P10721 26-976): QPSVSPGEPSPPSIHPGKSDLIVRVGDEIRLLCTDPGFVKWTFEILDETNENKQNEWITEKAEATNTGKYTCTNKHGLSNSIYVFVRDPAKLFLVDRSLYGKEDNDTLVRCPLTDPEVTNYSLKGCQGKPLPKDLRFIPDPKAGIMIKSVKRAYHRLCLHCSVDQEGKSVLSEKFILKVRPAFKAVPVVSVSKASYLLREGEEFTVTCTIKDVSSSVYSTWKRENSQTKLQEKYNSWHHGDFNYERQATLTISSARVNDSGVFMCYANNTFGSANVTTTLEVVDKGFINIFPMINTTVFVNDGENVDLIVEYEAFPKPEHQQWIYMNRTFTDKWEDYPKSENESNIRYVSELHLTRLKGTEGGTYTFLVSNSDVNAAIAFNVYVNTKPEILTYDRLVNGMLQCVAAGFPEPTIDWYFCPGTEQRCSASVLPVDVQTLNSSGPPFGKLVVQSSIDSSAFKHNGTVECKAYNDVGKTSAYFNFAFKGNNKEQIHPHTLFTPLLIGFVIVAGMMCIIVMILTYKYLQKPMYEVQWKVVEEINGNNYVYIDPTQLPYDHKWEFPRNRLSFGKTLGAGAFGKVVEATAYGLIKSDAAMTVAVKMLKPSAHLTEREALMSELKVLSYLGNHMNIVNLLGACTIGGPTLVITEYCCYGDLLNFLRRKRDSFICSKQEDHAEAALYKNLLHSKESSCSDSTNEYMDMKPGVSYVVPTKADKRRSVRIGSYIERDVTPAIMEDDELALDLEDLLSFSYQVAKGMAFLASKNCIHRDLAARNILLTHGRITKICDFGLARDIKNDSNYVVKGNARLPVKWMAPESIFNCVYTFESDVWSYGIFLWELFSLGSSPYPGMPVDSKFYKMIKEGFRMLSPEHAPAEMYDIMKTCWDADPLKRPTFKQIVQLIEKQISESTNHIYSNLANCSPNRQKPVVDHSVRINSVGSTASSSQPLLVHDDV

As to `N#Cc1ccc2ncn(Cc3ccc4nc(N[C@@H]5CCCC[C@H]5O)sc4c3)c2c1` [Example 111, 1-((2-(((1R,2R)-2-hydroxycyclohexyl)amino)benzo[d]thiazol-6-yl)methyl)-1H-benzo[d]imidazole-6-carbonitrile], the IC50 in the test on M-NFS-60 cells is 50 to 400 nM; on CSF1R [1] it was 50 to 200 nM. Moreover, the equilibrium dissociation constant (Kd) at CSF1R [2] lay within 5 to 20 nM; on KIT it was 500 to 2000 nM.

Turning to `O[C@@H]1CCCC[C@H]1Nc1nc2ccc(Cc3cnc4cc(-n5cccn5)ccn34)cc2s1` [Example 167, (1R,2R)-2-((6-((7-(1H-pyrazol-1-yl)imidazo[1,2-a]pyridin-3-yl)methyl)benzo[d]thiazol-2-yl)amino)cyclohexanol], the IC50 in the test on M-NFS-60 cells and on CSF1R [1] was at most 50 nM throughout. Further, the Kd at CSF1R [2] is at most 5 nM; on KIT, 100 to 500 nM.

Take `CNC(=O)c1ccc2ncc(Cc3ccc4nc(N[C@@H]5CCCC[C@H]5O)sc4c3)n2n1` [Example 143, 3-((2-(((1R,2R)-2-hydroxycyclohexyl)amino)benzo[d]thiazol-6-yl)methyl)-N-methylimidazo[1,2-b]pyridazine-6-carboxamide]: the IC50 in the test with M-NFS-60 cells fell in the range of 400 to 1500 nM; at CSF1R [1], 200 to 500 nM. Besides, the Kd at CSF1R [2] is 5 to 20 nM; at KIT it was 500 to 2000 nM.

Regarding `O[C@@H]1CCCC[C@H]1Nc1nc2ccc(Cn3cnc4cc(-n5cncn5)ccc43)cc2s1` [Example 161, (1R,2R)-2-((6-((5-(1H-1,2,4-triazol-1-yl)-1H-benzo[d]imidazol-1-yl)methyl)benzo[d]thiazol-2-yl)amino)cyclohexanol], the IC50 is 50 to 400 nM with M-NFS-60 cells and at most 50 nM on CSF1R [1]. In addition, the dissociation constant (Kd) at CSF1R [2] was in the range of 5 to 20 nM; at KIT it was 100 to 500 nM.

In the case of `O[C@@H]1CCCC[C@H]1Nc1nc2ccc(Cc3cnc4ccc(-n5cccn5)cn34)cc2s1` [Example 159, (1R,2R)-2-((6-((6-(1H-pyrazol-1-yl)imidazo[1,2-a]pyridin-3-yl)methyl)benzo[d]thiazol-2-yl)amino)cyclohexanol], the IC50 in the test with M-NFS-60 cells is 400 to 1500 nM; on CSF1R [1], 200 to 500 nM. For the same molecule, the figures for the Kd at CSF1R [2] and on KIT were 5 to 20 nM and 500 to 2000 nM, respectively.

As for `O[C@@H]1CCCC[C@H]1Nc1nc2c(F)cc(Cn3cnc4cccnc43)c(F)c2s1` [Example 168, (1R,2R)-2-((6-((3H-imidazo[4,5-b]pyridin-3-yl)methyl)-4,7-difluorobenzo[d]thiazol-2-yl)amino)cyclohexanol], the IC50 was 400 to 1500 nM with M-NFS-60 cells and above 500 nM at CSF1R [1]. Further, the Kd at CSF1R [2] is 5 to 20 nM; at KIT it was above 2000 nM.

For the molecule `CNC(=O)c1ccc2c(c1)ncn2Cc1ccc2nc(N[C@@H]3CCCC[C@H]3O)sc2c1` [Example 173, 1-((2-(((1R,2R)-2-hydroxycyclohexyl)amino)benzo[d]thiazol-6-yl)methyl)-N-methyl-1H-benzo[d]imidazole-5-carboxamide], the IC50 in the test with M-NFS-60 cells lay in the range of 50 to 400 nM; on CSF1R [1], 50 to 200 nM. The Kd at CSF1R [2] is 5 to 20 nM; on KIT, 100 to 500 nM.

Regarding `O[C@@H]1CCCC[C@H]1Nc1nc2ccc(Cn3cnc4cncnc43)cc2o1` [Example 118, (1R,2R)-2-((6-((9H-purin-9-yl)methyl)benzo[d]oxazol-2-yl)amino)cyclohexanol], the IC50 in the test on M-NFS-60 cells was 400 to 1500 nM; on CSF1R [1], above 500 nM. Besides, the Kd lay within 20 to 50 nM at CSF1R [2] and 100 to 500 nM on KIT.

In the case of `O[C@H]1[C@@H](O)CCC[C@H]1Nc1nc2ccc(Cn3cnc4cc(F)cnc43)cc2s1` [Example 228, (1S,2R,3R)-3-((6-((6-fluoro-3H-imidazo[4,5-b]pyridin-3-yl)methyl)benzo[d]thiazol-2-yl)amino)cyclohexane-1,2-diol], the IC50 with M-NFS-60 cells is above 1500 nM; on CSF1R [1], above 500 nM. Moreover, the results for the Kd on CSF1R [2] and at KIT were above 50 nM and 500 to 2000 nM, respectively.

With `O[C@@H]1CCCC[C@H]1Nc1nc2c(Br)cc(Cn3cnc4cccnc43)cc2s1` [Example 166, (1R,2R)-2-((6-((3H-imidazo[4,5-b]pyridin-3-yl)methyl)-4-bromobenzo[d]thiazol-2-yl)amino)cyclohexanol], the IC50 is 400 to 1500 nM in the test on M-NFS-60 cells and above 500 nM at CSF1R [1]. Further, the Kd on CSF1R [2] was 5 to 20 nM; on KIT, 500 to 2000 nM.

With `COCCOc1ccn2c(Cc3ccc4nc(N[C@@H]5CCCC[C@H]5O)sc4c3)cnc2c1` [Example 153, (1R,2R)-2-((6-((7-(2-methoxyethoxy)imidazo[1,2-a]pyridin-3-yl)methyl)benzo[d]thiazol-2-yl)amino)cyclohexanol], the IC50 in the test with M-NFS-60 cells is 50 to 400 nM; on CSF1R [1] it was at most 50 nM. Moreover, the figures for the Kd at CSF1R [2] and at KIT were 5 to 20 nM and 500 to 2000 nM, respectively.

Regarding `COc1nc2c(cc1Br)ncn2Cc1ccc2nc(N[C@@H]3CCCC[C@H]3O)sc2c1` [Example 123, (1R,2R)-2-((6-((6-bromo-5-methoxy-3H-imidazo[4,5-b]pyridin-3-yl)methyl)benzo[d]thiazol-2-yl)amino)cyclohexanol], the figures for the IC50 in the test on M-NFS-60 cells and at CSF1R [1] were 50 to 400 nM and 50 to 200 nM, respectively. The figures for the Kd at CSF1R [2] and on KIT were 5 to 20 nM and at most 100 nM, respectively.

Turning to `O[C@@H]1CCCC[C@H]1Nc1nc2ccc(Cn3cnc4cc(Cl)c(Cl)nc43)cc2s1` [Example 137, (1R,2R)-2-((6-((5,6-dichloro-3H-imidazo[4,5-b]pyridin-3-yl)methyl)benzo[d]thiazol-2-yl)amino)cyclohexanol], the half-maximal inhibitory concentration (IC50) with M-NFS-60 cells and on CSF1R [1] was at most 50 nM throughout. Besides, the Kd is at most 5 nM on CSF1R [2] and at most 100 nM at KIT.

On to `O[C@@H]1CCCC[C@H]1Nc1nc2ccc(Cn3cnc4cccnc43)c(F)c2s1` [Example 164, (1R,2R)-2-((6-((3H-imidazo[4,5-b]pyridin-3-yl)methyl)-7-fluorobenzo[d]thiazol-2-yl)amino)cyclohexanol], for which the IC50 with M-NFS-60 cells was 400 to 1500 nM; at CSF1R [1], above 500 nM. For the same molecule, the results for the Kd at CSF1R [2] and on KIT were 5 to 20 nM and above 2000 nM, respectively.

For `O[C@@H]1[C@H](O)CCC[C@H]1Nc1nc2ccc(Cc3cnc4cc(-n5nccn5)ccn34)cc2s1` [Example 231, (1R,2S,3R)-3-((6-((7-(2H-1,2,3-triazol-2-yl)imidazo[1,2-a]pyridin-3-yl)methyl)benzo[d]thiazol-2-yl)amino)cyclohexane-1,2-diol], the IC50 in the test with M-NFS-60 cells and on CSF1R [1] was at most 50 nM each time. The Kd on CSF1R [2] is 5 to 20 nM; at KIT, 500 to 2000 nM.

`O[C@@H]1CCCC[C@H]1Nc1nc2ccc(Cc3cnc4ccc(Cl)nn34)cc2s1` [Example 158, (1R,2R)-2-((6-((6-chloroimidazo[1,2-b]pyridazin-3-yl)methyl)benzo[d]thiazol-2-yl)amino)cyclohexanol]: the IC50 in the test on M-NFS-60 cells and at CSF1R [1] was at most 50 nM in each case. The Kd is at most 5 nM on CSF1R [2] and at most 100 nM at KIT.

With `Oc1ccc2c(c1)ncn2Cc1ccc2nc(N[C@@H]3CCCC[C@H]3O)sc2c1` [Example 147, 1-((2-(((1R,2R)-2-hydroxycyclohexyl)amino)benzo[d]thiazol-6-yl)methyl)-1H-benzo[d]imidazol-5-ol], the IC50 in the test on M-NFS-60 cells is 50 to 400 nM; at CSF1R [1] it was at most 50 nM. Further, the figures for the Kd on CSF1R [2] and on KIT were at most 5 nM and at most 100 nM, respectively.

On to `O[C@@H]1CCCC[C@H]1Nc1nc2ccc(Cn3cnc4cc(I)cnc43)cc2s1` [Example 146, (1R,2R)-2-((6-((6-iodo-3H-imidazo[4,5-b]pyridin-3-yl)methyl)benzo[d]thiazol-2-yl)amino)cyclohexanol], for which the IC50 is 50 to 400 nM with M-NFS-60 cells and at most 50 nM on CSF1R [1]. The figures for the Kd at CSF1R [2] and at KIT were 5 to 20 nM and at most 100 nM, respectively.

For `O[C@@H]1CCCC[C@H]1Nc1nc2ccc(Cc3cnc4cccnn34)cc2s1` [Example 131, (1R,2R)-2-((6-(imidazo[1,2-b]pyridazin-3-ylmethyl)benzo[d]thiazol-2-yl)amino)cyclohexanol], the IC50 in the test on M-NFS-60 cells and on CSF1R [1] was at most 50 nM throughout. Also, the Kd is at most 5 nM on CSF1R [2] and at most 100 nM on KIT.

In the case of `O[C@@H]1CCCC[C@H]1Nc1nc2ccc(Cc3cnc4ccc(N5CCOCC5)nn34)cc2s1` [Example 155, (1R,2R)-2-((6-((6-morpholinoimidazo[1,2-b]pyridazin-3-yl)methyl)benzo[d]thiazol-2-yl)amino)cyclohexanol], the IC50 was 50 to 400 nM with M-NFS-60 cells and at most 50 nM at CSF1R [1]. Also, the values for the Kd on CSF1R [2] and at KIT were at most 5 nM and at most 100 nM, respectively.

`C=Cc1ccc2c(c1)ncn2Cc1ccc2nc(N[C@@H]3CCC[C@@H](O)[C@H]3O)sc2c1` [Example 232, (1R,2S,3R)-3-((6-((5-vinyl-1H-benzo[d]imidazol-1-yl)methyl)benzo[d]thiazol-2-yl)amino)cyclohexane-1,2-diol]: the half-maximal inhibitory concentration (IC50) in the test on M-NFS-60 cells and on CSF1R [1] was at most 50 nM each time. Also, the dissociation constant (Kd) is at most 5 nM at CSF1R [2] and at most 100 nM at KIT.

For the molecule `Cc1ccc2c(c1)ncn2Cc1ccc2nc(N[C@@H]3CCCC[C@H]3O)sc2c1` [Example 127, (1R,2R)-2-((6-((5-methyl-1H-benzo[d]imidazol-1-yl)methyl)benzo[d]thiazol-2-yl)amino)cyclohexanol], the IC50 in the test on M-NFS-60 cells lay in the range of 50 to 400 nM; on CSF1R [1], 50 to 200 nM. Also, the Kd at CSF1R [2] was in the range of 5 to 20 nM; at KIT it was 100 to 500 nM.
